Data set [1] deals with T1, Solute carrier organic anion transporter family member 2B1 (Homo sapiens, UniProt O94956).
T1 sequence (O94956 whole entry): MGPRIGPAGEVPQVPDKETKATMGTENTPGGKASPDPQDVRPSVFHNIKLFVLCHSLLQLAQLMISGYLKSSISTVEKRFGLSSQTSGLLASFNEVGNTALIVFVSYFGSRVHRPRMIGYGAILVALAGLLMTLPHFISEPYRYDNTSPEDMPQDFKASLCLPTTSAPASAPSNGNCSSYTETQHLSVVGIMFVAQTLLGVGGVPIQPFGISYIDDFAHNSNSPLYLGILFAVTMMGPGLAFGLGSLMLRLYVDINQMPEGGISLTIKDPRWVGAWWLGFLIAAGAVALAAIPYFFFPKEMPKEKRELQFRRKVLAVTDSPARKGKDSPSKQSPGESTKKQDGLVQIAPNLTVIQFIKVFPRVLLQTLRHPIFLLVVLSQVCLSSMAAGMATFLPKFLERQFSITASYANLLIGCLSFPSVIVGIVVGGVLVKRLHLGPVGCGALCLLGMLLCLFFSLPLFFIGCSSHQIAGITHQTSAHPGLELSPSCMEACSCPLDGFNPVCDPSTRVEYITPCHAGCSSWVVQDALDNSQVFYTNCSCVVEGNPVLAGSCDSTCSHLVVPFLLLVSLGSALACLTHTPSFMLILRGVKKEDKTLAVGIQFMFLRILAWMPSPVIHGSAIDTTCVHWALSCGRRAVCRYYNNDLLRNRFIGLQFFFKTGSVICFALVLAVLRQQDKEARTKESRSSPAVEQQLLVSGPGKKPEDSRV
Description: Inhibition of human liver OATP2B1 expressed in HEK293 Flp-In cells assessed as reduction in [3H]E3S uptake at 20 uM incubated for 5 mins by scintillation counting. To be noted: hek293, 5 min.

The target in a further data set is T2, OATP1B1 (Homo sapiens, UniProt Q9Y6L6).
T2 sequence (Q9Y6L6 whole entry): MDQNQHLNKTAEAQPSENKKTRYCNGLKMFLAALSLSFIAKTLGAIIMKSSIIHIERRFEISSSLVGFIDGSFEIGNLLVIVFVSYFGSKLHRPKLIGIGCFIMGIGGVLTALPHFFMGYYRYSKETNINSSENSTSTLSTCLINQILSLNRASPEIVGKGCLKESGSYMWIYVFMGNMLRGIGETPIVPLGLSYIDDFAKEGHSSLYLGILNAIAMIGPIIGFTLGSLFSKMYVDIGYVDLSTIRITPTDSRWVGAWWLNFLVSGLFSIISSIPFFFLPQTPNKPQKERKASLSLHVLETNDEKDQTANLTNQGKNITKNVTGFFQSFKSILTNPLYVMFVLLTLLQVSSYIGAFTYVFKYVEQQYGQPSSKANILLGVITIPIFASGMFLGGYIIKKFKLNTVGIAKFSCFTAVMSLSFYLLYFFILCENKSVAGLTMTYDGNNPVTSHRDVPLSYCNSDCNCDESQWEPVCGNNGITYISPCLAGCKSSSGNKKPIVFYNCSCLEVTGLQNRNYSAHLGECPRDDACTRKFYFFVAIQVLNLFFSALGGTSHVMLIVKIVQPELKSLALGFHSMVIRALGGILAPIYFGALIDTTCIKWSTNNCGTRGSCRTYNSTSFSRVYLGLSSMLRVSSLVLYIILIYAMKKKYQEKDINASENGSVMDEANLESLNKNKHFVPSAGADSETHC
Description: (§1) Inhibition of human liver OATP1B1 expressed in HEK293 Flp-In cells assessed as reduction in E17-betaG uptake at 20 uM by scintillation counting.

The target of data set [2] is T3, Solute carrier organic anion transporter family member 1B3 (Homo sapiens, UniProt Q9NPD5).
T3 sequence (Q9NPD5 whole entry): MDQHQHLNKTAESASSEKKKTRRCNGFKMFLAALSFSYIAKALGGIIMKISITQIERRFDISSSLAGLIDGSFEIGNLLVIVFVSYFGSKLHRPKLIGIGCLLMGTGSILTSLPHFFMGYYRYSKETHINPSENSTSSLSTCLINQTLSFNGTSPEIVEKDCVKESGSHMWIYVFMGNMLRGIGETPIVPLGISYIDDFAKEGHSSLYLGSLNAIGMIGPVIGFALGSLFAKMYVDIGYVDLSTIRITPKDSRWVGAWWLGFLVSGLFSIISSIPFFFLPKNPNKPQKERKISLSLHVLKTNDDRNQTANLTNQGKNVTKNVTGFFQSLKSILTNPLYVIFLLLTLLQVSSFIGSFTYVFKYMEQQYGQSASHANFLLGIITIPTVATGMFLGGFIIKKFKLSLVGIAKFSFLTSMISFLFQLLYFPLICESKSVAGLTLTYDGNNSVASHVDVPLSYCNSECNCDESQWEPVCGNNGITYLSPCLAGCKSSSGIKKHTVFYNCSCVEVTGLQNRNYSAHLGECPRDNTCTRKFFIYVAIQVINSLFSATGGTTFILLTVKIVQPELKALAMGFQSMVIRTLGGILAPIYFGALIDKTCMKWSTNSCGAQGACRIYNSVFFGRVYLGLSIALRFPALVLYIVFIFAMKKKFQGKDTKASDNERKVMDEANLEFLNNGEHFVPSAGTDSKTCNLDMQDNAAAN
Description: Inhibition of human liver OATP1B3 expressed in HEK293 Flp-In cells assessed as reduction in [3H]E17-betaG uptake at 20 uM incubated for 5 mins by scintillation counting. To be noted: hek293, 5 min.

In data set [3] the target is T4, Solute carrier organic anion transporter family member 1B1 (Homo sapiens, UniProt Q9Y6L6).
T4 sequence (Q9Y6L6 whole entry): T2 sequence (Q9Y6L6 whole entry)
Described as §1. To be noted: hek293, 20 µM.

Where [4] appears, read: HEK293 Flp-In cells expressing OATP1B1, probe E17-betaG.

For `C[n+]1ccccc1`, the INH is 12.8% in data set [1] and -2.3% in data set [2]. Further, the inhibition at 20 µM on OATP1B1 (setting [4]) came out at 27.9%.
On the same counts, the results for `C[n+]1ccc(-c2ccccc2)cc1` are 2.4%, 10.8% and 14.2%.
On the same counts, the results for `C[n+]1cc2c3c(ccc2c2ccc4cc5c(cc4c21)OCO5)OCO3` are 15%, 2.9% and -0.2%.
On to `CC(=O)Oc1ccc2c(c1)Oc1cc(OC(C)=O)ccc1C21OC(=O)c2cc(C(=O)O)ccc21`, for which the values for the INH in data set [1] and in data set [2] were -24.9% and 71.1%, respectively. At OATP1B1 (setting [4]), the inhibition at 20 µM amounted to 70.7%.
Take `N[C@@H]1C[C@H]1c1ccccc1.N[C@H]1C[C@@H]1c1ccccc1` (relative stereo) [TRANYLCYPROMINE]: the results for the INH in data set [1] and in data set [2] were 15.5% and -9.3%, respectively. Besides, on OATP1B1 (hek293), the inhibition at 20 µM is -9.5%.
Turning to `Cc1ccc(-c2cc(C(F)(F)F)nn2-c2ccc(S(N)(=O)=O)cc2)cc1` [CELECOXIB], the INH was -69% in data set [1] and 22.3% in data set [2]. The inhibition at 20 µM at OATP1B1 (hek293) is -3.3%.
Regarding `COc1ccc2c(c[n+](C)c3c4cc5c(cc4ccc23)OCO5)c1OC` [CHELERYTHRINE], the INH in data set [1] worked out at 13.1%; in data set [2], 24.9%. Further, on OATP1B1 (setting [4]), the inhibition at 20 µM was -0.7%.
On the same counts, the results for `CCN(CC)CCCC(C)Nc1ccnc2cc(Cl)ccc12` (stereo not given) [CHLOROQUINE] are 23.5%, -7.2% and -1.4%.
Consider `CC[C@H]1OC(=O)[C@H](C)[C@@H](O[C@H]2C[C@@](C)(OC)[C@@H](O)[C@H](C)O2)[C@H](C)[C@@H](O[C@@H]2O[C@H](C)C[C@H](N(C)C)[C@H]2O)[C@](C)(OC)C[C@@H](C)C(=O)[C@H](C)[C@@H](O)[C@]1(C)O` [CLARITHROMYCIN], for which the values for the INH in data set [1] and in data set [2] were 5.1% and 53.8%, respectively. Further, on OATP1B1 (setting [4]), the inhibition at 20 µM worked out at 73.1%.
On the same counts, the results for `COc1cccc2c1C(=O)c1c(O)c3c(c(O)c1C2=O)C[C@@](O)(C(=O)CO)C[C@@H]3O[C@H]1C[C@H](N)[C@H](O)[C@H](C)O1` [DOXORUBICIN] are 49.9%, 26.6% and -5.8%.
Take `C[C@H](CCC(=O)NCC(=O)O)[C@H]1CC[C@H]2[C@@H]3[C@H](O)C[C@@H]4C[C@H](O)CC[C@]4(C)[C@H]3C[C@H](O)[C@]12C` [GLYCOCHOLIC ACID]: the INH is given as -9.8% in data set [1] and 29% in data set [2]. For the same molecule, the inhibition at 20 µM on OATP1B1 (setting [4]) was found to be 66.4%.
For the molecule `N[C@@H](Cc1cc(I)c(Oc2cc(I)c(O)c(I)c2)c(I)c1)C(=O)O` [LEVOTHYROXINE], the INH turned out to be 63.7% in data set [1] and 11.4% in data set [2]. The inhibition at 20 µM on OATP1B1 (setting [4]) is -13.1%.
Turning to `CC1COc2c(N3CCN(C)CC3)c(F)cc3c(=O)c(C(=O)O)cn1c23` (stereo not given) [OFLOXACIN], the INH is reported as 18.4% in data set [1] and 24.5% in data set [2]. Besides, at OATP1B1 (setting [4]), the inhibition at 20 µM was -8.2%.
On to `CCCc1nc(C(C)(C)O)c(C(=O)OCc2oc(=O)oc2C)n1Cc1ccc(-c2ccccc2-c2nnn[nH]2)cc1` [OLMESARTAN MEDOXOMIL], for which the INH in data set [1] is listed as -7.9%. In addition, at OATP1B1 (setting [4]), the inhibition at 20 µM came to 60.4%.
Regarding `Cc1nccn1CC1CCc2c(c3ccccc3n2C)C1=O` (stereo not given) [ONDANSETRON], the INH is reported as -8.7% in data set [1] and -3.6% in data set [2]. The inhibition at 20 µM at OATP1B1 (setting [4]) was found to be 4.8%.
On the same counts, the results for `S=C=NCCc1ccccc1` [PHENETHYLISOTHIOCYANATE] are -32%, 12.3% and -16.4%.
Turning to `COc1cc(Cc2cnc(N)nc2N)cc(OC)c1OC` [TRIMETHOPRIM], the INH is recorded as 35.1% in data set [1], 24.7% in data set [3] and 18.8% in data set [2].
As to `CC(C)C[C@H](NC(=O)[C@@H](O)[C@H](N)Cc1ccccc1)C(=O)O` [UBENIMEX], the INH in data set [1] turned out to be 20.7%; in data set [3], 10.9%; in data set [2], 31.8%.
`CC(C)[C@H](N)C(=O)OCCOCn1cnc2c(=O)[nH]c(N)nc21` [VALACYCLOVIR]: the figures for the INH in data set [1], in data set [3] and in data set [2] were -7.3%, 8.3% and 6.6%, respectively.
On the same counts, the results for `C/C=C/C[C@@H](C)C(=O)[C@H]1C(=O)N[C@@H](C(C)C)C(=O)N(C)CC(=O)N(C)[C@@H](CC(C)C)C(=O)N[C@@H](C(C)C)C(=O)N(C)[C@@H](CC(C)C)C(=O)N[C@@H](C)C(=O)N[C@H](C)C(=O)N(C)[C@@H](CC(C)C)C(=O)N(C)[C@@H](CC(C)C)C(=O)N(C)[C@@H](C(C)C)C(=O)N1C` [VALSPODAR] are 33.1%, 96.3% and 93.9%.
Consider `c1cnc2cc3c(cc2n1)[C@@H]1CNC[C@H]3C1` [VARENICLINE], for which the INH in data set [1] was determined as 27.3%; in data set [3], 24.7%; in data set [2], 0.8%.
On the same counts, the results for `CC[C@]1(O)C[C@@H]2CN(CCc3c([nH]c4ccccc34)[C@@](C(=O)OC)(c3cc4c(cc3OC)N(C)[C@H]3[C@@](O)(C(=O)OC)[C@H](OC(C)=O)[C@]5(CC)C=CCN6CC[C@]43[C@@H]65)C2)C1` [VINBLASTINE] are -9.3%, 57.6% and 54.3%.
With `CC(=O)CC(c1ccccc1)c1c(O)c2ccccc2oc1=O` (stereo not given) [WARFARIN], the results for the INH in data set [1], in data set [3] and in data set [2] were 31.6%, 27.8% and -3.2%, respectively.
On the same counts, the results for `Cc1cn([C@H]2C[C@H](N=[N+]=[N-])[C@@H](CO)O2)c(=O)[nH]c1=O` [ZIDOVUDINE] are 4.7%, 9.5% and 7.1%.
On the same counts, the results for FLUPENTIXOL are 9.5%, 30.2% and 13.5%.
On the same counts, the results for IVERMECTIN are 39%, 64.7% and 55.2%.
For NYSTATIN, the INH in data set [1] is 23.4%; in data set [3], 69.3%; in data set [2], 74.9%.

By inhibition is commonly meant the relative decrease from the control value, in per cent.

These data come from ChEMBL document CHEMBL2163248, “Classification of inhibitors of hepatic organic anion transporting polypeptides (OATPs): influence of protein expression on drug-drug interactions” (J Med Chem, 2012).
